In data set [1] the test system is murine L1210 leukemia cell. Briefly: Antitumor effect on murine L1210 leukemia cell (increase in life-span of inoculated mice). Format: in vivo, murine; male CDF1 mice. Conditions: for ILSmax (maximum percent increase in life-span) / ILS50 (dose which shows 50% of the ILS value by 5 administrations) / dose corresponding to ILSmax: L1210, i.p. once a day for 5 days; for ILSmax (maximum percent increase in life-span): 30 days observation; for ILS50 (dose which shows 50% of the ILS value by 5 administrations): linear regression; for TI (therapeutic index, LD50 value/ILS50 value): L1210. As to the method:
(§1) Murine L1210 leukemia cells (1×10^5 cells) were inoculated peritoneally into six-week-old male CDF1 mice on day 0. From the next day after the inoculation, a drug (the compound of the invention or a compound for comparison) was administered peritoneally once a day for 5 days. After 30 days of observation, the percent increase in life-span (ILS) was calculated as follows: […]
(§2) T: mean survival days of the drug-treated group
(§3) C: mean survival days of control group
(§4) In these tables, ILSmax means maximum ILS value (%), and corresponding dose (mg/kg) is Shown in parenthesis.

The test system of data set [2] is cisplatin-resistant murine L1210 leukemia cell (L1210/DDP). Description: Antitumor effect on cisplatin-resistant murine L1210 leukemia cell (L1210/DDP). Format: in vivo, murine; male CDF1 mice. As to conditions: for ILSmax (maximum percent increase in life-span) / dose corresponding to ILSmax / ILS50 (dose which shows 50% of the ILS value by 5 administrations): i.p. once a day for 5 days; for ILSmax (maximum percent increase in life-span): 30 days observation; for ILS50 (dose which shows 50% of the ILS value by 5 administrations): linear regression. As to the method:
as §1, §2, §3
In these tables, ILSmax means maximum ILS value (%), and corresponding dose (mg/kg) is Shown in parenthesis. In this test, cisplatin and carboplatin were respectively tested in each test lot for accurate comparison.
Antitumor effect on cisplatin-resistant murine L1210 leukemia cell (L1210/DDP):
The test of Test Example 1 was repeated except that cisplatin-resistant murine L1210 leukemia cell (L1210/DDP) was used instead of murine L1210 leukemia cell.

The test system of data set [3] is murine P388 leukemia cell. Description: Antitumor effect on murine P388 leukemia cell. Conditions: for ILSmax (maximum percent increase in life-span) / ILS50 (dose which shows 50% of the ILS value by 5 administrations) / dose corresponding to ILSmax: P388, i.p. once a day for 5 days; for ILSmax (maximum percent increase in life-span): 30 days observation; for ILS50 (dose which shows 50% of the ILS value by 5 administrations): linear regression; for TI (therapeutic index, LD50 value/ILS50 value): P388. Format: in vivo, murine; male CDF1 mice. Here is the method: as §1, §2, §3, §4
Antitumor effect on murine P388 leukemia cell:
The test of Test Example 1 was repeated except that 1×10^6 of murine P388 leukemia cells were used instead of 1×10^5 of murine L1210 leukemia cells.

The nature of data set [4]: 50% lethal dose by single peritoneal administration, obtained at the time of the dose setting. Format: in vivo, CDF1 mice.
Text: as §4

The structures appear in SMILES notation.

With `CCON.N.[Cl][Pt][Cl]` [Compound No. 5, cis-dichloroammine (O-ethylhydroxylamine)platinum(II)], in data set [1] (Table 4 test lot), the “ILSmax (maximum percent increase in life-span)” value is given as more than 109.4%; the “ILS50 (dose which shows 50% of the ILS value by 5 administrations)” value came out at 0.9 mg/kg; the “dose corresponding to ILSmax” value is 4.0 mg/kg; the “TI (therapeutic index, LD50 value/ILS50 value)” value turned out to be 24.6. For the same compound, in data set [2] (Table 6 test lot), the “TI (therapeutic index, LD50 value/ILS50 value)” value came to 27.6; the “ILSmax (maximum percent increase in life-span)” value is given as more than 152.8%; the “dose corresponding to ILSmax” value was 2.0 mg/kg; the “ILS50 (dose which shows 50% of the ILS value by 5 administrations)” value came out at 0.8 mg/kg. Also, in data set [3] (Table 8 test lot), the “ILSmax (maximum percent increase in life-span)” value is more than 129.6%; the “ILS50 (dose which shows 50% of the ILS value by 5 administrations)” value turned out to be 0.6 mg/kg; the “dose corresponding to ILSmax” value was found to be 4.0 mg/kg; the “TI (therapeutic index, LD50 value/ILS50 value)” value came to 36.8. In addition, the “LD50 (50% lethal dose)” value in data set [4] was 22.1 mg/kg.

As to `CC(C)(C)ON.N.[Cl][Pt][Cl]` [Compound No. 7, cis-dichloroammine (O-tert-butylhydroxylamine)platinum(II)], in data set [1] (Table 5 test lot), the “ILSmax (maximum percent increase in life-span)” value was more than 181.3%; the “ILS50 (dose which shows 50% of the ILS value by 5 administrations)” value is on record as 1.5 mg/kg; the “dose corresponding to ILSmax” value is listed as 8.0 mg/kg; the “TI (therapeutic index, LD50 value/ILS50 value)” value is given as 14.7. In addition, in data set [2] (Table 7 test lot), the “TI (therapeutic index, LD50 value/ILS50 value)” value is listed as more than 22.1; the “ILSmax (maximum percent increase in life-span)” value is recorded as more than 206.1%; the “dose corresponding to ILSmax” value is recorded as 1.0 mg/kg; the “ILS50 (dose which shows 50% of the ILS value by 5 administrations)” value is less than 1.0 mg/kg. In addition, in data set [3] (Table 9 test lot), the “ILSmax (maximum percent increase in life-span)” value is 92.3%; the “ILS50 (dose which shows 50% of the ILS value by 5 administrations)” value is less than 1.0 mg/kg; the “dose corresponding to ILSmax” value came out at 2.0 mg/kg; the “TI (therapeutic index, LD50 value/ILS50 value)” value was more than 22.1. In data set [4], the “LD50 (50% lethal dose)” value was found to be 22.1 mg/kg.

As for `CCCO[NH][Pt]([NH2])([Cl])[Cl]` [Compound No. 8, cis-dichloroammine (O-propylhydroxylamine)platinum(II)], in data set [1] (Table 5 test lot), the “ILSmax (maximum percent increase in life-span)” value was more than 131.3%; the “ILS50 (dose which shows 50% of the ILS value by 5 administrations)” value turned out to be 0.8 mg/kg; the “dose corresponding to ILSmax” value is recorded as 4.0 mg/kg; the “TI (therapeutic index, LD50 value/ILS50 value)” value is given as 13.8. In data set [2] (Table 7 test lot), the “TI (therapeutic index, LD50 value/ILS50 value)” value is listed as more than 22.0; the “ILSmax (maximum percent increase in life-span)” value is listed as more than 175.5%; the “dose corresponding to ILSmax” value came to 1.0 mg/kg; the “ILS50 (dose which shows 50% of the ILS value by 5 administrations)” value is on record as less than 0.5 mg/kg. Moreover, in data set [3] (Table 9 test lot), the “ILSmax (maximum percent increase in life-span)” value came to 101.9%; the “ILS50 (dose which shows 50% of the ILS value by 5 administrations)” value is on record as less than 0.5 mg/kg; the “dose corresponding to ILSmax” value worked out at 2.0 mg/kg; the “TI (therapeutic index, LD50 value/ILS50 value)” value is given as more than 22.0. In data set [4], the “LD50 (50% lethal dose)” value is listed as 11.0 mg/kg.

For the compound `N.NOC1CCCCC1.[Cl][Pt][Cl]` [Compound No. 9, cis-dichloroammine (O-cyclohexylhydroxylamine)platinum(II)], in data set [1] (Table 5 test lot), the “ILSmax (maximum percent increase in life-span)” value amounted to 108.8%; the “ILS50 (dose which shows 50% of the ILS value by 5 administrations)” value turned out to be 1.3 mg/kg; the “dose corresponding to ILSmax” value is given as 4.0 mg/kg; the “TI (therapeutic index, LD50 value/ILS50 value)” value came out at 17.0. Besides, in data set [2] (Table 7 test lot), the “TI (therapeutic index, LD50 value/ILS50 value)” value is more than 22.1; the “ILSmax (maximum percent increase in life-span)” value is more than 206.1%; the “dose corresponding to ILSmax” value worked out at 1.0 mg/kg; the “ILS50 (dose which shows 50% of the ILS value by 5 administrations)” value is on record as less than 1.0 mg/kg. Also, in data set [3] (Table 9 test lot), the “ILSmax (maximum percent increase in life-span)” value is on record as 114.4%; the “ILS50 (dose which shows 50% of the ILS value by 5 administrations)” value is less than 1.0 mg/kg; the “dose corresponding to ILSmax” value was 4.0 mg/kg; the “TI (therapeutic index, LD50 value/ILS50 value)” value is recorded as more than 22.1. In addition, the “LD50 (50% lethal dose)” value in data set [4] is 22.1 mg/kg.

The values above are taken from patent US5498780A, “Platinum complex and malignant tumor treating drug containing the same” (SS Pharmaceutical Co., Ltd., priority 1994, dated 1996).
